Results reported in US8410159B2, “Imidazole compounds having pharmaceutical activity towards the sigma receptor” (Laboratories del Dr. Esteve, S.A., priority 2006, dated 2013).

Columns and labels:
[1] = target: T1, σ1-receptor (Cavia porcellus, UniProt Q60492); assay: Sigma-1 receptor binding assay, [3H](+)-pentazocine, brain membranes; settings: guinea pig brain membranes; for inhibition at 0.1 µM: compound 10^−7 M; for inhibition at 0.1 µM / inhibition at 0.01 µM: [3H](+)-pentazocine 0.5 nM; for inhibition at 0.01 µM: compound 10^−8 M; for Ki: σ1, [3H](+)-pentazocine
T1 construct: guinea pig brains were homogenized; from tissue; host or cells: guinea pig brain membranes
Procedure: Brain membrane preparation and binding assays for the σ1-receptor were performed as described (DeHaven-Hudkins et al., 1992) with some modifications. In brief, guinea pig brains were homogenized in 10 vols. (w/v) of Tris-HCl 50 mM 0.32 M sucrose, pH 7.4, with a Kinematica Polytron PT 3000 at 15000 r.p.m. for 30 s. The homogenate was centrifuged at 1000 g for 10 min at 4° C. and the supernatants collected and centrifuged again at 48000 g for 15 min at 4° C. The pellet was resuspended in 10 volumes of Tris-HCl buffer (50 mM, pH 7.4), incubated at 37° C. for 30 min, and centrifuged at 48000 g for 20 min at 4° C. Following this, the pellet was resuspended in fresh Tris-HCl buffer (50 mM, pH 7.4) and stored on ice until use.
Each assay tube contained 10 μL of [^3H](+)-pentazocine (final concentration of 0.5 nM), 900 μL of the tissue suspension to a final assay volume of 1 mL and a final tissue concentration of approximately 30 mg tissue net weight/mL. Non-specific binding was defined by addition of a final concentration of 1 μM haloperidol. All tubes were incubated at 37° C. for 150 min before termination of the reaction by rapid filtration over Schleicher & Schuell GF 3362 glass fibre filters [previously soaked in a solution of 0.5% polyethylenimine for at least 1 h]. Filters were then washed with four times with 4 mL of cold Tris-HCl buffer (50 mM, pH 7.4). Following addition of scintillation cocktail, the samples were allowed to equilibrate overnight. The amount of bound radioactivity was determined by liquid scintillation spectrometry using a Wallac Winspectral 1414 liquid scintillation counter. Protein concentrations were determined by the method of Lowry et al. (1951).

[2] = system: capsaicin-induced allodynia; assay: von Frey filaments in a model of capsaicin-induced allodynia; assay type: in vivo; settings: percent analgesia compared to control, mice, mechanical stimulus (von Frey) after capsaicin
Procedure: In-Vivo-Experiments Using von Frey Filaments in a Model of […]-Induced Allodynia: This model is described in detail in the experimental part of WO 2006/010587 A1, examples 1 and 2, the description being included here by reference. Capsaicin is thereby injected into experimental animals to produce acute pain followed by allodynia. Briefly after habituation mice were first treated with the test-compound (or not in controls). Then capsaicin (1% DMSO) is injected into their paw resulting in developing pain in the effected paw. The effected paw is then treated with a mechanical stimulus and the latency time before the paw is withdrawn is measured.

T1 sequence (Q60492 whole entry): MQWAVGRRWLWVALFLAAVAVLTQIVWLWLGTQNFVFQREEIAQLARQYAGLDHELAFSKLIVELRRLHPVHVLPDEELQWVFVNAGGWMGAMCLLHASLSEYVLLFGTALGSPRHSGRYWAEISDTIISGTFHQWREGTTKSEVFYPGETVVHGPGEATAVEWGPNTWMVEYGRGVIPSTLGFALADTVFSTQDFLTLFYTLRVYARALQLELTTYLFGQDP

melting point [°C]	inhibition at 0.1 µM [1] [%]	inhibition at 0.01 µM [1] [%]	Ki [1] [nM]	Compound	Analgesia (16 mg/kg), i.p. % [2] [%]
114 to 116				CN(CCNc1ccn(-c2ccc(Cl)c(Cl)c2)n1)C1CCCCC1.O=C(O)C(=O)O	
230 to 232				CN1CCN(CCNc2ccn(-c3ccc(Cl)c(Cl)c3)n2)CC1.O=C(O)C(=O)O	
157 to 159				Clc1ccc(-n2ccc(NCCN3CCCCCC3)n2)cc1Cl.O=C(O)C(=O)O	
162 to 164				Cc1cc(SCCN2CCCCC2)nn1-c1ccc(Cl)c(Cl)c1.O=C(O)C(=O)O	
144 to 146				Clc1cccc(-n2ccc(NCCN3CCOCC3)n2)c1.O=C(O)C(=O)O	
	78.9	54.3		Clc1ccc(-n2ccc(NCCN3CCOCC3)n2)cc1Cl [Example 3, 1-(3,4-dichlorophenyl)-N-(2-morpholinoethyl)-1H-pyrazol-3-amine]	
78 to 82	68.2	46.1		O=C(CN1CCCCC1)Nc1ccn(-c2ccc(Cl)c(Cl)c2)n1 [Example 5, N-[1-(3,4-dichlorophenyl)-1H-pyrazol-3-yl)-2-(piperidin-1-yl)acetamide]	
168 to 172	88.3	53.6	7.1	Clc1ccc(-n2ccc(NCCN3CCCCC3)n2)cc1Cl.O=C(O)C(=O)O [Example 6, 1-(3,4-Dichlorophenyl)-N-(2-(piperidin-1-yl)ethyl)-1H-pyrazol-3-amine oxalate]	42
115 to 119	100	72.1		Clc1ccc(-n2ccc(NCCN3CCN(C4CCCCC4)CC3)n2)cc1Cl [Example 14, N-(2-(4-cyclohexylpiperazin-1-yl)ethyl)-1-(3,4-dichlorophenyl)-1H-pyrazol-3-amine]	
99 to 102				O=C(CN1CCCCCC1)Nc1ccn(-c2ccc(Cl)c(Cl)c2)n1 [Example 28, 2-(azepan-1-yl)-N-(1-(3,4-dichlorophenyl)-1H-pyrazol-3-yl)acetamide]	

The next lines start with the compound.

Compound	melting point [°C]	inhibition at 0.1 µM [1] [%]	inhibition at 0.01 µM [1] [%]	Ki [1] [nM]	Analgesia (16 mg/kg), i.p. % [2] [%]
CN1CCN(CC(=O)Nc2ccn(-c3ccc(Cl)c(Cl)c3)n2)CC1.O=C(O)C(=O)O	213 to 217				
CN(CC(=O)Nc1ccn(-c2ccc(Cl)c(Cl)c2)n1)Cc1ccccc1.O=C(O)C(=O)O	206 to 209				
O=C(CN1CCOCC1)Nc1ccn(-c2ccc3ccccc3c2)n1.O=C(O)C(=O)O	213 to 217				
O=C(O)C(=O)O.c1ccc2cc(-n3ccc(NCCN4CCOCC4)n3)ccc2c1	148 to 153				
Cc1cc(SCCN2CCCC2)nn1-c1ccc(Cl)c(Cl)c1.O=C(O)C(=O)O	144 to 151				
O=C(CN1CCOCC1)Nc1ccn(-c2cccc(Cl)c2)n1.O=C(O)C(=O)O	219 to 220				
O=C(CN1CCCC1)Nc1ccn(C2CCCCC2)n1.O=C(O)C(=O)O	127 to 130				
O=C(CN1CCCCC1)Nc1ccn(C2CCCCC2)n1.O=C(O)C(=O)O	177 to 181				
CCN(CC)CCNc1ccn(-c2ccc(Cl)c(Cl)c2)n1 [Example 1, 1-(3,4-dichlorophenyl)-N-(2-(diethylamino)ethyl)-1H-pyrazol-3-amine]		66.6	1.8	46.4	
O=C(CN1CCOCC1)Nc1ccn(-c2ccc(Cl)c(Cl)c2)n1 [Example 2, N-(1-(3,4-dichlorophenyl)-1H-pyrazol-3-yl)-2-morpholinoacetamide]		37.8	25.9		
CCN(CC)CC(=O)Nc1ccn(-c2ccc(Cl)c(Cl)c2)n1 [Example 4, N-(1-(3,4-dichlorophenyl)-1H-pyrazol-3-yl)-2-(diethylamino)acetamide]	69 to 74	77.3	51.7	6.4	47
CN(CC(=O)Nc1ccn(-c2ccc(Cl)c(Cl)c2)n1)C1CCCCC1 [Example 11, 2-(cyclohexyl (methyl)amino)-N-(1-(3,4-dichlorophenyl)-1H-pyrazol-3-yl)acetamide]	88 to 94	91.8	68.8		
Cc1cc(SCCN2CCOCC2)nn1-c1ccc(Cl)c(Cl)c1.O=C(O)C(=O)O [Example 68, 4-(2-(1-(3,4-dichlorophenyl)-5-methyl-1H-pyrazol-3-ylthio)ethyl) morpholine oxalate]		93.5	91.2	23 ± 0.6	21
CCN(CC)CCSc1cc(C)n(-c2ccc(Cl)c(Cl)c2)n1.O=C(O)C(=O)O [Example 70, 2-(1-(3,4-dichlorophe-nyl)-5-methyl-1H-pyrazol-3-ylthio)-N,N-diethylethanamine oxalate]	184 to 188	93.1	34.6		
